Experimental data from patent publication US20230391785A1, “NITROGEN-CONTAINING HETEROCYCLIC COMPOUND, METHOD FOR PREPARING SAME AND USE OF SAME” (280 Bio, Inc., priority 2021, published 2023).
Where two headings read alike, the source gives them in different places.

Legend:
Type in all cases: cell-based
[1] = system: Hs 578T breast cancer cell line (HRAS G12D mutation); experiment: Proliferation inhibition measured by CTG (CellTiter Glo), Hs 578T; details: Homo sapiens, Table 1, CTG, 120 hours incubation, class symbol
Text: (§1) NCI-H358 is a human non-small cell lung cancer cell line with KRAS G12C mutation; PANC-1 and AsPC-1 are pancreatic cancer cell lines with KRAS G12D mutation; AGS is a gastric cancer cell line with KRAS G12D mutation; A427 is a lung cancer cell line with KRAS G12D mutation; THP-1 is a leukemia cell line with NRAS G12D mutation; Hs 578T is a breast cancer cell line with HRAS G12D mutation; SW480 is a colon cancer cell lines with KRAS G12V mutation; A375 is a wild type malignant melanoma cell line. The proliferation inhibitory effect of the compounds on various mutations was evaluated by determining the proliferation inhibitory activity of the compounds on these cell lines.
(§2) The assay was conducted on either 384-well plates or 96-well plates. The procedures are as follows:
(§3) The cell suspensions were added to 384- or 96-well plates (384-well plate: 40 μL; 96-well plate: […]) except for peripheral wells. The plates were incubated in a carbon dioxide incubator overnight. Prepared compounds (10 concentration gradients by serial 3-fold dilution) were added to the wells. The cell plates were incubated in a carbon dioxide incubator for 120 hours. CellTiter Glo reagent (384 well plate: 25 μL; 96 well plate: 100 μL) was added to the 384- or 96-well plates. The plates were shaken for 10 minutes away from light, and incubated for 10 minutes. The plates were read by EnVision system. Inhibition curves were plotted using XLFit and IC50 values were calculated. “IC50>10 μM” is denoted by “*”, “10 μM≥IC50>1 μM” is denoted by “**”, “1 μM≥IC50>100 nM” is denoted by “***”, and “IC50≤100 nM” is denoted by “****”.

[2] = system: AGS gastric cancer cell line (KRAS G12D mutation); experiment: Proliferation inhibition measured by CTG (CellTiter Glo), AGS; details: CTG, 120 hours incubation
Text: as §1, §2, §3

[3] = system: NCI-H358 cells (KRAS G12C mutation); experiment: Proliferation inhibition measured by CTG (CellTiter Glo), NCI-H358; details: Homo sapiens
Text: as §1, §2, §3

[4] = system: A375 wild type malignant melanoma cell line; experiment: Proliferation inhibition measured by CTG (CellTiter Glo), A375; details: Homo sapiens, A-375
Text: as §1, §2, §3

[5] = system: THP-1 leukemia cell line (NRAS G12D mutation); experiment: Proliferation inhibition measured by CTG (CellTiter Glo), THP-1; details: Homo sapiens, Table 1, CTG, 120 hours incubation, class symbol
Text: as §1, §2, §3

[6] = system: AsPC-1 pancreatic cancer cell line (KRAS G12D mutation); experiment: Proliferation inhibition measured by CTG (CellTiter Glo), AsPC-1; details: Homo sapiens, ASPC1
Text: as §1, §2, §3

[7] = system: SW480 colon cancer cell line (KRAS G12V mutation); experiment: Proliferation inhibition measured by CTG (CellTiter Glo), SW480; details: Homo sapiens, Table 3, 120 hours incubation, class symbol, read-out: IC50 (SW480)
Text: as §1, §2, §3

[8] = Table 1, class symbol, read-out: IC50 (AGS)
[9] = Table 1, CTG, 120 hours incubation, class symbol, read-out: IC50 (H358)
[10] = Table 1, CTG, 120 hours incubation, class symbol, read-out: IC50 (A375)
[11] = Table 1, CTG, 120 hours incubation, class symbol
[12] = Table 3, class symbol, read-out: IC50 (AGS)
[13] = Table 3, CTG, 120 hours incubation, class symbol, read-out: IC50 (H358)
[14] = Table 3, CTG, 120 hours incubation, class symbol, read-out: IC50 (A375)

Row | SMILES | IC50 [1] [nM] | IC50 [2, 8] [nM] | IC50 [3, 9] [µM] | IC50 [4, 10] [µM] | IC50 [5] [nM] | IC50 [6, 11] [µM] | IC50 [2, 12] [nM] | IC50 [3, 13] [µM] | IC50 [4, 14] [µM] | IC50 [7] [nM] | further results
1 | CN1CCC2(CC1)CC(Oc1nc3c(c(N4CCn5cncc5C4)n1)CCN(c1cccc4cccc(Cl)c14)C3)C2 [Compound 35] | 1000 to 10000 | 1000 to 10000 | 0.1 to 1 | 1 to 10 | 1000 to 10000 | 1 to 10 |  |  |  |  | 
2 | CN1CCC[C@H]1COc1nc2c(c(N3CCn4cncc4C3)n1)CO[C@H](c1cccc3cccc(Cl)c13)C2 [Compound 3] |  |  | 0.1 to 1 | 1 to 10 |  | 1 to 10 |  |  |  |  | 
3 | CN1CCC[C@H]1COc1nc2c(c(N3CCc4cnoc4C3)n1)CCN(c1cccc3cccc(Cl)c13)C2 [Comparative compound 1′, reference compound] |  |  | > 10 | > 10 |  | > 10 |  |  |  |  | IC50 ([3]; Table 1, number in parentheses, no unit printed in Table 1 (Table 2 gives the same values of compound 2 in μM), read-out: IC50 (H358)): 17.2 µM; IC50 ([4]; Table 1, number in parentheses, unit not given in Table 1 (Table 2 gives the same value in μM), read-out: IC50 (A375)): 22.7 µM; IC50 ([6]; Table 1, number in parentheses, unit not given in Table 1 (legend and Table 2 use μM)): 39.7 µM
4 | CN1CCC[C@H]1COc1nc2c(c(N3CCn4cnc(-c5ccccc5)c4C3)n1)CCN(c1cccc3cccc(Cl)c13)C2 [Compound 30] | 1000 to 10000 | 100 to 1000 | 0.1 to 1 | 0.1 to 1 | 100 to 1000 | 0.1 to 1 |  |  |  |  | 
5 | CN1CCC[C@@H]1COc1nc2c(c(N3CCn4cncc4C3)n1)CCN(c1cccc3cccc(Cl)c13)C2 [Compound 18] | 100 to 1000 | ≤ 100 | ≤ 0.1 | 0.1 to 1 | 100 to 1000 | 0.1 to 1 |  |  |  |  | 
6 | Clc1cccc2cccc(N3CCc4c(nc(OCCN5CCCCC5)nc4N4CCn5cncc5C4)C3)c12 [Compound 31] | 1000 to 10000 | 100 to 1000 | 0.1 to 1 | 1 to 10 | 100 to 1000 | 0.1 to 1 |  |  |  |  | 
7 | COC1CN(c2nc(OC[C@@H]3CCCN3C)nc3c2CCN(c2cccc4cccc(Cl)c24)C3)Cc2cncn21 (some centres unmarked) [Compound 23] | 1000 to 10000 | 100 to 1000 | 0.1 to 1 | 0.1 to 1 | 100 to 1000 | 0.1 to 1 |  |  |  |  | 
8 | CN1CC[C@@H](COc2nc3c(c(N4CCn5cncc5C4)n2)CCN(c2cccc4cccc(Cl)c24)C3)C1 [Compound 28] | 1000 to 10000 | 100 to 1000 | 0.1 to 1 | 0.1 to 1 | 100 to 1000 | 0.1 to 1 |  |  |  |  | 
9 | C[C@@H]1Cn2cncc2CN1c1nc(OC[C@@H]2CCCCN2C)nc2c1CCN(c1cccc3cccc(Cl)c13)C2 [Compound 64] |  |  |  |  |  |  | ≤ 100 | ≤ 0.1 | ≤ 0.1 | ≤ 100 | 
10 | C[C@@H]1Cn2cncc2CN1c1nc(OC2CN(C)C2)nc2c1CCN(c1cccc3cccc(Cl)c13)C2 [Compound 74] |  |  |  |  |  |  | 100 to 1000 | 0.1 to 1 | 1 to 10 | 100 to 1000 | 
11 | Clc1cccc2cccc(N3CCc4c(nc(OCC56CCCN5CCC6)nc4N4CCn5cncc5C4)C3)c12 [Compound 24] | > 10000 | 1000 to 10000 | 0.1 to 1 | 0.1 to 1 | 100 to 1000 | 1 to 10 |  |  |  |  | 
12 | CC1Cn2cncc2CN1c1nc(OC[C@@H]2CCCN2C)nc2c1CCN(c1cccc3cccc(Cl)c13)C2 (some centres unmarked) [Compound 22] | 100 to 1000 | ≤ 100 | ≤ 0.1 | ≤ 0.1 | ≤ 100 | ≤ 0.1 |  |  |  |  | IC50 ([2]; Table 2, read-out: IC50 AGS (G12D)): 54 nM; IC50 ([3]; Table 2, CTG, 120 hours incubation, read-out: IC50 H358 (G12C)): 0.073 µM; IC50 ([4]; Table 2, CTG, 120 hours incubation, read-out: IC50 A375 (wide type)): 0.096 µM
13 | C[C@@H]1Cn2cnc(F)c2CN1c1nc(OC[C@@H]2CCCN2C)nc2c1CCN(c1cc(O)cc3cccc(Cl)c13)C2 [Compound 78] |  |  |  |  |  |  | ≤ 100 | ≤ 0.1 | ≤ 0.1 | ≤ 100 | 
14 | C[C@@H]1Cn2cnc(F)c2CN1c1nc(OC[C@@H]2CCCN2C)nc2c1CO[C@H](c1cccc3cccc(Cl)c13)C2 [Compound 104] |  |  |  |  |  |  | 100 to 1000 | 0.1 to 1 | 0.1 to 1 | 100 to 1000 | 
15 | C[C@@H]1Cn2cncc2CN1c1nc(O[C@@H]2CCN(C)C2)nc2c1CCN(c1cccc3cccc(Cl)c13)C2 [Compound 57] |  |  |  |  |  |  | ≤ 100 | ≤ 0.1 | 0.1 to 1 | ≤ 100 | 
